Assay results taken from PMC6880817, “Palladium-catalyzed synthesis and nucleotide pyrophosphatase inhibition of benzo[4,5]furo[3,2-b]indoles” (Beilstein Journal of Organic Chemistry, 2019).
Where two headings read alike, the source gives them in different places.

Assays:
h-NPP-1 = molecular target: T1, h-NPP-1 (Homo sapiens, UniProt P22413); assay: Nucleotide pyrophosphatase inhibition assay (colorimetric, pNP-TMP substrate), h-NPP-1; format: biochemical; conditions: for interaction with enzyme h-NPP-1: result in words
T1 construct: made in house; host or cells: COS-7 cells transiently transfected with a plasmid expressing human NPP-1; lysate/membrane fraction used as the enzyme
T1 sequence (P22413 1-925): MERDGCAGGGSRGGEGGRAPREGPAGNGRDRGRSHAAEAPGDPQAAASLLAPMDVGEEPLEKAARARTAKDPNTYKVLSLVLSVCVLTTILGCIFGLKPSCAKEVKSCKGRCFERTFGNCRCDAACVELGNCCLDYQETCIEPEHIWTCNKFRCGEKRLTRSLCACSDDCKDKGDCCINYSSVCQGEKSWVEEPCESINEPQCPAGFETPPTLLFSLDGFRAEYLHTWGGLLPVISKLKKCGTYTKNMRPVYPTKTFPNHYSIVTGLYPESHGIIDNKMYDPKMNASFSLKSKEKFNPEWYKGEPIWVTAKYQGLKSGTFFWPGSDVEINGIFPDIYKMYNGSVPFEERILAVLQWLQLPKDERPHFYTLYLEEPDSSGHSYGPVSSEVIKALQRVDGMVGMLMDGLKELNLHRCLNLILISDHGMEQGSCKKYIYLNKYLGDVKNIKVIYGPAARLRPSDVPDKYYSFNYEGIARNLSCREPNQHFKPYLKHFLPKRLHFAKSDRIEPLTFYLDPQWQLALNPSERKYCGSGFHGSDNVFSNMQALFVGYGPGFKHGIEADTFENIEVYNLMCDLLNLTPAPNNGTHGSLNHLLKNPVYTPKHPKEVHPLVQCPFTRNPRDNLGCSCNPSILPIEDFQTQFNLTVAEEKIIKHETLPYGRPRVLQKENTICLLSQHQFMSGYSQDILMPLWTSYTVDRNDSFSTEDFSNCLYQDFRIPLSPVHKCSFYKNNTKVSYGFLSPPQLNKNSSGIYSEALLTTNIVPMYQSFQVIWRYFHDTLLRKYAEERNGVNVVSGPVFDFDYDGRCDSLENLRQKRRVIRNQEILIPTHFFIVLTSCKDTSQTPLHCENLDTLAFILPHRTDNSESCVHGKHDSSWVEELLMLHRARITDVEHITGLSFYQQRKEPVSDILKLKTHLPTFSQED
Method: (§1) The inhibition potential of all the sulphonate derivatives against NPP1 and NPP3, was determined by considering an already reported colorimetric method with minor modifications. The reaction buffer was comprised of 50 mM Tris-hydrochloric acid, 5 mM magnesium chloride (MgCl2) and 0.1 mM zinc chloride (ZnCl2) with final pH 9.5. For initial screening of compounds, first enzyme and substrate parameters (concentration, temperature, time) were optimized. The reaction assay was performed at 100 µL well volume containing assay buffer, 10 µL of 1 mM test compound prepared in 10% DMSO, enzymes NPP1 (35 ng), NPP3 (94 ng) and assay buffer. The reaction mixture was incubated at 37 °C, 10 minutes for NPP1 and NPP3. Absorbance was taken at wavelength of 405 nm as pre-read by using a microplate reader (BioTek FLx800, Instruments, Inc. USA). After pre-read the artificial substrate p-nitrophenyl 5'-thymidine monophosphate (pNP-TMP), 400 µM for NPP1 and 600 µM in case of NPP3, was added followed by a second incubation at 37 °C, 15 minutes for NPP1 and NPP3. Absorbance was taken as after read. All the experiments were performed in triplicate.
(§2) Cell transfection with human NPPs. Analogous as previously described, COS-7 cells were transfected with plasmids expressing human NPPs ((NPP-1) or (NPP-3)) in 10 cm plates, by using Lipofectamine. The confluent cells were incubated for 5 h at 37 °C in DMEM/F-12 in the absence of fetal bovine serum and with 6 µg of plasmid DNA and 24 µL of lipofectamine reagent. Subsequently, the same volume of DMEM/F-12 containing 20% FBS was added to stop the transfection and cells were harvested 48–72 h later.
(§3) Preparation of membrane fractions. Analogous as previously described, the transfected cells were washed three times with Tris–saline buffer at 4 °C and then the cells were collected by scraping in the harvesting buffer (95 mM NaCl, 0.1 mM PMSF, and 45 mM Tris buffer, pH 7.5). Afterwards, the cells were washed twice by centrifugation at 300g for 5 min at 4 °C [4]. These cells were resuspended in the harvesting buffer containing 1 0 µg/mL aprotinin and then sonicated. Cellular and nuclear debris were discarde d by 10 min centrifugation (300 g at 4 °C). Glycerol (final concentration of 7.5%) was added to the resulting supernatant and all the samples were kept at −80 °C until used. Bra dford microplate assay was used for the estimation of protein concentration. Bovine serum albumin was used as a reference standard.
(§4) Protocol of nucleotide pyrophosphatase (h -NPP-1 & h-NPP-3) activity. Analogous as previously described , the conditions for the assay were optimized with the slight modifications in previously used spectrophotometric method. The reaction was carried out in the assay buffer which contained 5 mM MgCl 2, 0.1 mM ZnCl 2, 25% glycerol and 50 mM tris-hydrochloride (pH: 9.5). Initial screening was performed at a concentration of 0.1 mM of the tested compounds. The total volume of 100 µL contained 70 µL of the assay buffer, 10 µL of tested compound (0.1 mM with final DMSO 1% (v/v)) and 10 µL of h -NPP-1 (27 ng of protein from CO S cell lysate in assay buffer ) or 10 µL of h -NPP-3 (25 ng of protein from COS cell lysate in assay buffer ). The mixture was pre -incubated for 10 minutes at 37 °C and absorbance was measured at 405 nm as pre -read using microplate reader (BioTek FLx800, Instruments, Inc. USA). The reaction was then initiated by the addition of 10 µL of p-Nph-5-TMP substrate at a final concentration of 0.5 mM and the reaction mixture was incubated for 30 more min at 37 °C. The change in the absorbance was measured as after -read. The activity of each compound was compared with the reaction in absence of tested compounds/inhibitors.
(§5) 3 activity were further evaluated for determination of IC 50 values. For this purpose, their dose response curves were obtained by assaying each inhibitor concentration against both NPPs […]
(§6) using the above mentioned reaction conditions. […]

h-NPP-3 = molecular target: T2, h-NPP-3 (Homo sapiens, UniProt O14638); assay: Nucleotide pyrophosphatase inhibition assay (colorimetric, pNP-TMP substrate), h-NPP-3; format: biochemical; conditions: for selectivity of inhibitory response towards h-NPP-3: h-NPP-3 versus h-NPP-1, result in words
T2 construct: made in house; host or cells: COS-7 cells transiently transfected with a plasmid expressing human NPP-3; lysate/membrane fraction used as the enzyme
T2 sequence (O14638 1-875): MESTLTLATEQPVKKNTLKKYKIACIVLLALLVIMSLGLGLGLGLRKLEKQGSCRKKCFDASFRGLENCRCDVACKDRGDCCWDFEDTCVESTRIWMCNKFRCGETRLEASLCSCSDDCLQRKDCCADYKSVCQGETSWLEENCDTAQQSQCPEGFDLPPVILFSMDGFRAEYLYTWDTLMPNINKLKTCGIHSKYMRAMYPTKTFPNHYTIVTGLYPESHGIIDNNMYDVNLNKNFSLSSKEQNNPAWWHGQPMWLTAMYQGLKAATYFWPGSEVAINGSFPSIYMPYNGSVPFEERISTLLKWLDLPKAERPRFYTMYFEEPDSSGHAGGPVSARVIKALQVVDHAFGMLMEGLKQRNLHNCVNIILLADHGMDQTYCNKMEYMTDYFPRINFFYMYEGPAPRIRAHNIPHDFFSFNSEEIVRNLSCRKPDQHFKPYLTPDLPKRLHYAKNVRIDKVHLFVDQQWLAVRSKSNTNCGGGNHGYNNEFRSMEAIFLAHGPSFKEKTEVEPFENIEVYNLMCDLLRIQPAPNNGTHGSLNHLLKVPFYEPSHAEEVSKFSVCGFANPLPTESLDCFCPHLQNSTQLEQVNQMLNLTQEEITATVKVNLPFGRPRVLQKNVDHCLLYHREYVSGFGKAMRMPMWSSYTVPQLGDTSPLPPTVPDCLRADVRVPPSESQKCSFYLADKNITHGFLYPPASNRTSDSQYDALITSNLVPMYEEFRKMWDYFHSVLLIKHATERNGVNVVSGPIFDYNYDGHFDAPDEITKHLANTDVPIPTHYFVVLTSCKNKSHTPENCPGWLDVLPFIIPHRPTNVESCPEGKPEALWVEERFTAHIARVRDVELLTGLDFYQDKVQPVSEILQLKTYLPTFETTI
Method: as §1, §2, §3, §4, §5, §6

[1] = human recombinant NPP1, pNP-TMP substrate, pH 9.5, 37 °C, absorbance 405 nm, read-out: h-NPP-1 IC50 (µM) ± SEM
[2] = human recombinant NPP3, pNP-TMP substrate, pH 9.5, 37 °C, absorbance 405 nm, read-out: h-NPP-3 IC50(µM) ± SEM
[3] = read-out: h-NPP-3 IC50 ± SEM (unit inferred)

Row | melting point [°C] | IC50 (h-NPP-1; [1]) [µM] | IC50 (h-NPP-3; [2]) [µM] | Compound | selectivity of inhibitory response towards h-NPP-3 (h-NPP-3) | other results
1 | 134 to 135 | 2.84 ± 0.06 | 0.59 ± 0.02 | Cc1ccc(-n2c3ccccc3c3oc4ccccc4c32)cc1 [Compound 5b] |  | 
2 |  | 2.62 ± 0.03 | 0.27 ± 0.06 | c1ccc(Cn2c3ccccc3c3oc4ccccc4c32)cc1 [Compound 5h] |  | 
3 |  | 0.53 ± 0.09 | 0.21 ± 0.04 | c1ccc(Cn2c3ccccc3c3oc4c5ccccc5n(Cc5ccccc5)c4c32)cc1 [Compound 6e] |  | 
4 | 137 to 139 | > 100 | 1.38 ± 0.03 | c1ccc(-n2c3ccccc3c3oc4ccccc4c32)cc1 [Compound 5a] | selective inhibitory response towards nucleotide pyrophosphatase enzyme h-NPP-3 | 
5 |  | > 100 |  | FC(F)(F)c1cccc(-n2c3ccccc3c3oc4c5ccccc5n(-c5cccc(C(F)(F)F)c5)c4c32)c1 [Compound 6c] | highly selective towards h-NPP-3 | interaction with enzyme h-NPP-1 (h-NPP-1): no interaction with enzyme h-NPP-1; IC50 (h-NPP-3; [3]): 0.28 ± 0.04 µM
6 |  | > 100 |  | COc1ccc(-n2c3ccccc3c3oc4ccccc4c32)cc1 [Compound 5e] | selective inhibitory response towards nucleotide pyrophosphatase enzyme h-NPP-3 | IC50 (h-NPP-3; read-out: inhibitory value for h-NPP-3, IC50 ± SEM): 0.26 ± 0.01 µM
7 | 175 to 176 |  |  | COc1ccc(-n2c3ccccc3c3oc4ccccc4c32)cc1OC [Compound 5f] |  | 
8 |  |  | 0.61 ± 0.09 | Cc1ccc(-n2c3ccccc3c3oc4c5ccccc5n(-c5ccc(C)cc5)c4c32)cc1 [Compound 6a] |  | IC50 (h-NPP-1; read-out: inhibitory value for h-NPP-1, IC50 ± SEM): 0.11 ± 0.06 µM
9 | 163 to 164 | 6.14 ± 0.09 | 2.39 ± 0.05 | c1ccc2c(c1)oc1c3ccccc3n(C3CCCCC3)c21 [Compound 5j] |  | 
10 | 178 to 179 | 3.57 ± 0.03 | 0.49 ± 0.04 | FC(F)(F)c1cccc(-n2c3ccccc3c3oc4ccccc4c32)c1 [Compound 5d] |  | 
11 |  | 1.38 ± 0.09 | 0.18 ± 0.01 | COc1ccc(-n2c3ccccc3c3oc4c5ccccc5n(-c5ccc(OC)cc5)c4c32)cc1 [Compound 6d] |  | 
12 |  | > 100 |  | Fc1ccc(-n2c3ccccc3c3oc4c5ccccc5n(-c5ccc(F)cc5)c4c32)cc1 [Compound 6b] | highly selective towards h-NPP-3 | interaction with enzyme h-NPP-1 (h-NPP-1): no interaction with enzyme h-NPP-1; IC50 (h-NPP-3; [3]): 0.13 ± 0.06 µM

Row | Compound | melting point [°C] | IC50 (h-NPP-1; [1]) [µM] | IC50 (h-NPP-3; [2]) [µM] | selectivity of inhibitory response towards h-NPP-3 (h-NPP-3) | other results
13 | CCCCCCCn1c2ccccc2c2oc3ccccc3c21 [Compound 5i] |  | 3.27 ± 0.08 | 2.55 ± 0.07 |  | 
